From patent publication US8703698B2, “Compositions and methods for treating atherosclerosis” (The University of Chicago, priority 2003, dated 2014)

Legend:
J774 macrophages = test: [3H]cholesterol efflux from cholesterol-loaded J774 macrophages in tissue culture; assay type: cell-based, mouse; details: for cholesterol efflux compared to equimolar liposomes containing full length murine SAA2.1 protein (FIG. 10): cholesterol-laden J774 cells, equimolar concentrations; for cholesterol efflux as compared to controls (FIGS. 3A and 3B) / dose-response of cholesterol efflux (FIGS. 3A and 3B): liposomes; for cholesterol efflux as compared to controls (FIGS. 3A and 3B): peptide at 1 μM (alone printed 1 μl), cholesterol-laden murine macrophages; for dose-response of cholesterol efflux (FIGS. 3A and 3B): 0.05, 0.1, 0.5, 1.0, 2.5 and 5.0 μM; for total cellular [3H]cholesterol released into the medium: pre-incubated 4 hours with liposomes containing 0.5 μM peptide, then cultured in presence of HDL (50 μg/mL)
ApoE knockout mice [1] = test: Regression of aortic lesions in ApoE knockout mice on atherogenic diet; assay type: in vivo; details: for aortic lesions, area stained with Oil Red O, versus high fat diet controls (FIGS. 7A and 7B): liposomes intravenously once every four days for two weeks, 6 mg/kg, after four weeks atherogenic diet; for color of livers versus untreated mice: preliminary examination, ApoE knockout mice on atherogenic diet
Text: In regression experiments, ApoE knockout mice were placed on an atherogenic diet as described in Example 11 for four weeks, following which they were divided into two groups. One group continued on the diet for an additional two weeks. The other group continued on the diet for the same period but also received once every four days liposomes containing a peptide corresponding to amino acids 1-20 of murine SAA2.1 (SEQ ID NO:1; Group B of FIG. 7A and Group hf+p1 of FIG. 7B) or liposomes containing a peptide corresponding to amino acids 74-103 of murine SAA2.1 (SEQ ID NO:4; Group D of FIG. 7A and Group hf+p4 of FIG. 7B). The control group received high fat diet alone with no liposomes (Group A of FIG. 7A and Group high fat of FIG. 7B). An additional group was placed on a normal mouse chow diet (Group C of FIG. 7A and Group low fat of FIG. 7B). A further additional Group receiving liposomes containing a peptide corresponding to amino acids 1-20 of murine SAA2.1 (SEQ ID NO:1) and liposomes containing a peptide corresponding to amino acids 74-103 of murine SAA2.1 (SEQ ID NO:4) is depicted in FIG. 7B and is referred to as hf+p1+p4. FIG. 7B is inclusive of data present in FIG. 7A as well as data from a subsequent experiment performed under the same conditions. After the two weeks, the mice were killed and their aortas were dissected and stained with Oil Red O. Data of FIG. 7A depict the area stained with Oil Red O indicative of the actual lipid positive area as a percentage of the total aortic area viewed. Data of FIG. 7B depict the area stained with Oil Red O as a percentage relative to the high fat diet group (100%).
The efficacy of SAA2.1 peptides in regression of atherosclerosis was examined. The peptides tested included SEQ ID NO:1 and SEQ ID NO:4. The peptides were injected intravenously once every four (4) days during atherogenic induction for a period of 2 weeks (i.e. four doses at 6 mg/kg).
To determine if these peptides cause regression of atherosclerosis, the animals were placed on an atherogenic diet (Paigen's Atherogenic Rodent Diet: Purina 5015 with cocoa butter, cholesterol and cholic acid (CI3002, Research Diets, Inc.)) for […], following which they were divided into two groups of 5 animals each. One group continued on the diet for an additional two weeks. […]
(§1) To assess the effects of the peptides on aortic atherosclerosis, at the termination of the experiment, the aorta was removed from the animals and opened longitudinally. The endothelial surface was stained with Oil Red O and the area occupied by lipid was measured by image analysis. Furthermore, histological sections of aorta were prepared for microscopic analysis and total lipids were isolated to measure the quantity of cholesterol per wet weight of tissue. […]

ApoE knockout mice [2] = test: Prevention of aortic lesions in ApoE knockout mice on high fat diet; assay type: in vivo; details: liposomes intravenously once every four days, five doses at 6 mg/kg; 20 days high fat diet
Text: In prevention experiments, ApoE knockout mice were placed on a high fat diet and at the same time received once every four days liposomes containing a peptide corresponding to amino acids 1-20 of murine SAA2.1 (SEQ ID NO:1; Group 2 of FIG. 8A and Group hf+p1 of FIG. 8B), liposomes containing a peptide corresponding to amino acids 74-103 of murine SAA2.1 (SEQ ID NO:4; Group 4 of FIG. 8A and Group hf+p4 of FIG. 8B) or liposomes containing a peptide corresponding to amino acids 1-20 of murine SAA2.1 and a peptide corresponding to amino acids 74-103 of murine SAA2.1 (SEQ ID NO:1+SEQ ID NO:4; Group 5 of FIG. 8A and Group hf+p(1+4) of FIG. 8B). The control group received high fat diet alone with no liposomes (Group 1 of FIG. 8A and Group high fat of FIG. 8B). An additional group was placed on a normal mouse chow diet (Group 3 of FIG. 8A and Group low fat of FIG. 8B). […]
as §1, with “per” for “per wet”

In the case of “DTIADQEANRHGRSGKDPNYYRPPGLPDKY [SEQ ID NO:4, synthetic peptide, residues 74-103 of murine SAA2.1]”, the “cholesterol efflux compared to equimolar liposomes containing full length murine SAA2.1 protein (FIG. 10)” value (J774 macrophages) was “statistically significant greater cholesterol efflux”, the “cholesterol efflux as compared to controls (FIGS. 3A and 3B)” value (J774 macrophages) was “approximately 200%” and the “dose-response of cholesterol efflux (FIGS. 3A and 3B)” value (J774 macrophages) was “increased with increasing amounts of each peptide alone”. The “total cellular [3H]cholesterol released into the medium” value (J774 macrophages) was 46.7 ± 3.1%, the “rate of [3H]cholesterol efflux into medium containing HDL” value (J774 macrophages; pre-incubation with liposomes containing 0.5 μM peptide, HDL as acceptor) was “significant increase in the rate” and the “aortic lesions, area stained with Oil Red O, versus high fat diet controls (FIGS. 7A and 7B)” value (ApoE knockout mice [1]) was “showed regression of aortic lesions”. The “color of livers versus untreated mice” value (ApoE knockout mice [1]) was “more normal reddish color” and the “aortic lesions, area stained with Oil Red O, versus control animals (FIGS. 8A and 8B)” value (ApoE knockout mice [2]) was “showed decreased aortic lesions”.

For “GFFSFVHEAFQGAGDMWRAY [SEQ ID NO:1, synthetic peptide, residues 1-20 of murine SAA2.1]”, the “cholesterol efflux compared to equimolar liposomes containing full length murine SAA2.1 protein (FIG. 10)” value (J774 macrophages) was “statistically significant greater cholesterol efflux”, the “cholesterol efflux as compared to controls (FIGS. 3A and 3B)” value (J774 macrophages) was “approximately 200%” and the “dose-response of cholesterol efflux (FIGS. 3A and 3B)” value (J774 macrophages) was “increased with increasing amounts of each peptide alone”. For the same sequence, the “total cellular [3H]cholesterol released into the medium” value (J774 macrophages) was 60.6 ± 3.6%, the “aortic lesions, area stained with Oil Red O, versus high fat diet controls (FIGS. 7A and 7B)” value (ApoE knockout mice [1]) was “showed regression of aortic lesions” and the “color of livers versus untreated mice” value (ApoE knockout mice [1]) was “more normal reddish color”. The “aortic lesions, area stained with Oil Red O, versus control animals (FIGS. 8A and 8B)” value (ApoE knockout mice [2]) was “showed decreased aortic lesions”.
